Marks after values point to notes of the source that are not given here.
Assays:
[1] = test system: CYP3A; assay: Multifactorial analysis of genetic and environmental effects on the CYP3A probe drugs and biomarkers; settings: in vivo
Procedure: DNA was isolated from whole venous blood by automated solid phase extraction with the EZ1^TM DNA Blood 350 μl Kit using the Bio-robot EZ1^TM (both Qiagen, Hilden, Germany). The CYP3A4^∗1b and ^∗22 alleles as well as the CYP3A5^∗1/^∗3 polymorphism were genotyped by DNA sequencing using fluorescence-labeled dideoxynucleotides and detection via Gene Mapper v3.7 Software® (Applied Biosystems®, Foster City, United States). Zygosity was assessed by analyzing variants in 23 polymorphic genes. Monozygosity was concluded when there were no differences regarding the polymorphisms in both siblings of one twin pair.
(§1) Predefined primary endpoint was midazolam AUC. All concentrations and pharmacokinetic parameters were determined on three independent occasions to compare intra- versus interindividual variation. […] In structural equation modeling of heritability and in the other multifactorial analyses the individual means from the measurements or parameters obtained on the three occasions were used. Using structural equation analysis, variation was separated into additive genetic (A), common environmental (C), and unique environmental (E) effects. The heritability is the proportion of the variance resulting from the genetic effect (A). In order to investigate the genetic, common environmental, and unique environmental effects of the different traits taken into account, the possible correlation between traits were fitted in multivariate ACE, AE, and CE biometrical models using the mcglm package for multivariate regression analysis in R. As an exploratory analysis, we computed the correlation between MZ and DZ twins based on an unstructured (equal mean and variance for MZ and DZ twins) model. In all models, the mean structure for each trait was specified as a linear function of the covariates age and sex.

[2] = ref Heizmann et al., 1983; cited from earlier work
[3] = test system: CYP3A; assay: clinical; settings: for AUC: 0.2 mg midazolam i.v., zero to infinity; for AUC420: dose to 420 min
Procedure: Midazolam was administered as a 2 min intravenous infusion with a total dose of 0.2 mg. The phenotyping test with midazolam was performed on three different occasions with a time interval of at least 1 week and maximally 3 months.
Pharmacokinetic parameters were estimated by non-compartmental analyses using the WinNonlin software (Pharsight Corporation, Mountain View, United States). The AUC from zero to infinity (AUC), was calculated by the linear/log trapezoidal rule and using the terminal elimination rate constant (lambda z). […] Total plasma clearance (Cl) after administration of midazolam was calculated as the ratio dose over AUC. Time (tmax) and amount of maximum plasma concentration (Cmax) were given as measured and the terminal half-life (t1/2) was calculated as t1/2 = ln(2)/lambda z.

[4] = test system: CYP3A; assay: Twin correlations and structural equation modeling (ACE, AE, CE) of heritability of the CYP3A biomarkers
Procedure: as §1

[5] = test system: CYP3A; assay: Within- and between-subject variance and genetic component (Kalow) of the 4 CYP3A biomarkers, three occasions; settings: for Genetic component: from intra- and inter-individual variation, independent of twin status, AUC, plasma concentration or 24-h urine Ae
Procedure: as §1

[6] = test system: CYP3A; settings: in vivo
Procedure: Cholesterol and 4ß-OH cholesterol were measured in the baseline blood samples before drug administration. All samples were centrifuged for 10 min (4000 rpm) at 4°C and the plasma was stored at −20°C.
Calibration samples for cholesterol were prepared in isooctane with 10% 2-propanol in the concentration range from 1 to 30 μg. Calibration samples for 4ß-hydroxycholesterol were prepared in isooctane with 0.8% 2-propanol from 5 to 100 ng. […] Calibration samples were worked up as the samples, and analyzed together with the unknown samples. […] The concentration in unknown samples was obtained from the regression line.

Cc1ncc2n1-c1ccc(Cl)cc1C(c1ccccc1F)=NC2 [Midazolam, midazolam]
Coefficient, CYP3A4*22 ([1]; human): 169.57 | Coefficient, CYP3A5*3 ([1]; human): 32.33 | Coefficient, age ([1]; human): −0.60 | Coefficient, sex ([1]; human): 74.51 | Coefficient, lean body weight ([1]; human, 0.2 mg): −7.29 | Coefficient, smoking status ([1]; human, 0.2 mg): −21.79 | Coefficient, oral contraceptives ([1]; human, 0.2 mg): −63.18 | Fraction of midazolam eliminated as 1-OH-midazolam [2]: Approximately 75% | Median AUC ([3]; *1/*1 and *1/*1B genotypes (n = 110)): 439.1 μg ∗ min/L | AUC ([3]; DZ twins, value (range)): 431.0 (287.8 – 640.7) μg * min/L | AUC420 ([3]; DZ twins, value (range)): 354.8 (240.0 – 542.9) μg * min/L | tmax ([3]; DZ twins, value (range)): 10 (10 – 19) min | AUC ([3]; MZ twins, value (range)): 450.3 (290.3 – 897.4) μg * min/L | AUC420 ([3]; MZ twins, value (range)): 378.6 (255.8 – 636.4) μg * min/L | AUC, inter-individual range ([3]; all subjects): 288 – 897.4 μg∗min/L | Inter-individual variation in AUC ([3]; all subjects): 3.1 fold | AUC, mean ([3]; all subjects, three occasions): 464.0 µg·min/L | Median AUC ([3]; daily fruit consumption): 425.4 μg ∗ min/L | Median AUC ([3]; heterozygous carriers of CYP3A4*22 (n = 4)): 595.1 μg ∗ min/L | tmax ([3]; human, plasma, intravenous, 0.2 mg): 0.167 h | clearance ([3]; human, plasma, intravenous, 0.2 mg, Cl, DZ twins, total plasma clearance, value (range)): 480 mL/min | clearance ([3]; human, plasma, intravenous, 0.2 mg, Cl, DZ twins, value (range)): 6.74 mL/min/kg | clearance ([3]; human, plasma, intravenous, 0.2 mg, Cl, MZ twins, total plasma clearance, value (range)): 450 mL/min | clearance ([3]; human, plasma, intravenous, 0.2 mg, Cl, MZ twins, value (range)): 6.8 mL/min/kg | clearance ([3]; human, plasma, intravenous, 0.2 mg, Clearance, summary in discussion (Table 2)): ~500 mL/min | Cmax ([3]; human, plasma, intravenous, 0.2 mg, DZ twins, value (range)): 3.76 ng/mL | Cmax ([3]; human, plasma, intravenous, 0.2 mg, MZ twins, value (range)): 4.11 ng/mL | half-life ([3]; human, plasma, intravenous, 0.2 mg, Elimination half-life, summary in discussion (Table 2)): ~2 h | half-life ([3]; human, plasma, intravenous, 0.2 mg, t1/2, DZ twins, terminal half-life, value (range)): 3.08 h | half-life ([3]; human, plasma, intravenous, 0.2 mg, t1/2, MZ twins, terminal half-life, value (range)): 2.72 h | AUC higher in male than in female subjects ([3]; median): 8% | Variation of plasma concentrations between subjects ([3]; one study day, all subjects): about 10 fold | Median AUC ([3]; rare fruit consumption): 519.4 μg ∗ min/L | Intra-individual (between-days) mean coefficient of variation ([3]; three occasions): 11.3% | Median AUC ([3]; thrice weekly fruit consumption): 446.9 μg ∗ min/L | Median AUC ([3]; very rare fruit consumption): 558.9 μg ∗ min/L | C^2 (common environmental effect) ([4]; ACE model): 0.48 (0.24)* | H^2 (heritability) ([4]; ACE model): 0.15 (0.25) | Variation attributed to common environmental factors ([4]; ACE model): 48% | Variation due to additive genetic (inherited) effects ([4]; ACE model): 15% | H^2 (heritability) ([4]; AE model): 0.63 (0.06)* | C^2 (common environmental effect) ([4]; CE model): 0.60 (0.06)* | rdz (correlation between DZ twins) ([4]; unstructured model): 0.52 (0.13)* | rmz (correlation between MZ twins) ([4]; unstructured model): 0.66 (0.06)* | Genetic component [5]: 0.612 | Variation that may be due to genetic factors (from genetic component) ([5]; human, in vivo): up to 61%

C[C@]12CCC(=O)C=C1[C@@H](O)C[C@@H]1[C@@H]2[C@@H](O)C[C@@]2(C)[C@H]1CC[C@]2(O)C(=O)CO [6ß-OH-cortisol, 6-ß-hydroxycortisol]
Coefficient, CYP3A4*22 [1]: −127.40 | Coefficient, CYP3A5*3 [1]: 0.70 | Coefficient, age [1]: 0.94 | Coefficient, lean body weight [1]: −1.35 | Coefficient, sex [1]: −9.28 | Coefficient, smoking status [1]: −8.66 | Coefficient, oral contraceptives [1]: 3.37 | Ae (24-h-urine), mean [6]: 222 μg/24 h | Variation due to additive genetic (inherited) effects ([4]; in vivo): 31% | rdz (correlation between DZ twins) ([4]; in vivo): 0.50 (0.13)* | rmz (correlation between MZ twins) ([4]; in vivo): 0.68 (0.06)* | Genetic component [5]: 0.457 | Variance between subjects (Varb) of Ae (24-h-urine) ([5]; human, in vivo): 8141 μg/24 h | Variance within subjects (Varw) of Ae (24-h-urine) ([5]; three occasions): 4247 μg/24 h
